Values of other authors in US20040120995A1, “Transdermal delivery of pergolide” (priority 2003, published 2004).
Counter-ions that a name gives are not always drawn. Like-named read-outs stand apart in the source and are kept apart here.

Details: for Pergolide Blood Serum Level: human subjects

## CCCN1C[C@H](CSC)C[C@@H]2c3cccc4[nH]cc(c34)C[C@H]21 [pergolide mesylate]
2-3 hours following a 2.5 mg oral dose
  maximum blood serum level: about 500 picograms/ml
8 hours following a 0.5 mg oral dose
  blood serum level: about 60 picograms/ml
Oral dose 0.25 milligrams
  Pergolide Blood Serum Level: 47.75 picograms/ml
Oral dose 0.50 milligrams
  Pergolide Blood Serum Level: 100.08 picograms/ml
Oral dose 1.00 milligrams
  Pergolide Blood Serum Level: 199.33 picograms/ml
Oral dose 2.00 milligrams
  Pergolide Blood Serum Level: 398.66 picograms/ml
Oral dose 3.00 milligrams
  Pergolide Blood Serum Level: 597.99 picograms/ml
Oral dosing 3 mg/24 hours, divided into three doses
  peak serum concentration: approximately 200 pg/ml
